The values that follow are results of earlier work, collected in patent US9969755B2, “Photodynamic therapy photosensitizers” (The Royal Institution for the Advancement of …, priority 2016, dated 2018).

The conditions of the data set: reference value; cited from earlier work.

For the molecule `O=C([O-])c1c(Cl)c(Cl)c(Cl)c(Cl)c1-c1c2cc(I)c(=O)c(I)c-2oc2c(I)c([O-])c(I)cc12.[Na+].[Na+]` [Rose Bengal], the “φΔ of reference standard” value is 0.54.
